Data set [1] concerns iPSC-derived cortical glutamatergic neurons. Nature of the data set: Neurite outgrowth assay in iPSC-derived neurons. The data set is classed as cell-based, human. Particulars: for IC50: Homo sapiens, Neuron, 24 h, read-out: IC50 of neurite outgrowth inhibition.
The subject of data set [2] is TGFβ/SMAD signaling (SMAD2/3/4 complex), SBE-bla HEK 293T cells. As to the kind of experiment: SBE-bla antagonist assay. The data set is classed as cell-based, human. Particulars: for SBE Antagonist Efficacy: activity %, TGFβ1 only = 0, DMSO = -100.
The test system of data set [3] is WNT pathway, TCF/LEF-luc HEK293 cells. Nature of the data set: WNT-luc reporter gene assay. The data set is classed as cell-based, human. Background: In a reporter assay the amount or activity of a reporter protein is the signal.
Data set [4] deals with RAR pathway, RARE-luc C3RL4 cells. Nature of the data set: RAR-luc reporter gene assay. It counts as cell-based. The settings on record: 6 h.
Data set [5] has as its system SHH pathway, Gli1-luc NIH/3T3 cells. As to the kind of experiment: SHH-luc reporter gene assay. The data set is classed as cell-based.
Data set [6] relates to TGFβ, WNT, RAR and SHH pathways. Nature of the data set: Profile across developmental pathways. It counts as cell-based. Particulars: sodium dimethyldithiocarbamate at 10 μM.
Data set [7] relates to SBE-bla HEK 293T cells.
Data set [8] relates to SMAD2/3/4 signaling, SBE-bla HEK 293T cells. Nature of the data set: SBE-bla assay, activation by native TGFR ligands. The settings on record: Figure 2A. It counts as cell-based, human.
The mark [9] stands for this setting: Homo sapiens, HEK-293T, read-out: IC50 in SBE-bla assay, primary screening.

Entries after “also recorded” stand apart in the source; their conditions may differ. Where a name gives a salt, the structure may show the parent alone. Read-outs that look alike come from different tables or passages of the source.

In the case of `Nc1ncn([C@@H]2O[C@H](CO)[C@@H](O)[C@H]2O)c(=O)n1` [5-Azacitidine], the “inhibition of neurite outgrowth, in words” value in data set [1] (24 h treatment, Figure 5D) is on record as “inhibited neurite outgrowth”.

Turning to `CN1C(=O)N(c2ccccc2Br)Cc2cnc(Nc3ccc4c(c3)OCC(CO)O4)nc21` (stereo not drawn) [PharmaGSID_48519], the “inhibition of neurite outgrowth, in words” value in data set [1] was “did not inhibit neurite outgrowth; also recorded: didn’t inhibit neurite outgrowth”.

Consider `CCCCN(CCCC)C(=S)[S-].[Na+]` [Sodium dibutylcarbamodithioate], for which the “SBE Antagonist IC50” value in data set [2] (TGFβ1-induced SBE-bla activity, HEK 293T, 5 h, Tables 2 and 3) is “Inactive”. Also, the “SBE Antagonist Efficacy” value in data set [2] was “Inactive”. In data set [3] (WNT-3a stimulated, 24 h), the “WNT Antagonist Efficacy” value is “Inactive” and the “WNT Antagonist IC50” value is on record as “Inactive”. Moreover, in data set [4] (retinol stimulated), the “RAR Antagonist Efficacy” value is “Inactive” and the “RAR Antagonist IC50” value is listed as “Inactive”. In data set [5] (conditioned medium, 24 h), the “SHH Antagonist Efficacy” value is given as “Inactive” and the “SHH Antagonist IC50” value was “Inactive”. Moreover, in data set [6], the “inhibition of developmental pathways, in words” value is “inactive”. As for `CCN(CC)C(=S)S` [Sodium diethyldithiocarbamate], the IC50 (usually the concentration needed to halve the response being measured) in data set [2] (Homo sapiens, HEK-293T, 5 h, read-out: SBE Antagonist IC50) was 11.5 µM; in data set [3] (Homo sapiens, HEK293, 24 h, read-out: WNT Antagonist IC50), 3.69 µM; in data set [4] (read-out: RAR Antagonist IC50), 15.3 µM; in data set [5] (Mus musculus, NIH3T3, 24 h, read-out: SHH Antagonist IC50) it was 8.92 µM. For the same molecule, the “SBE Antagonist Efficacy” value in data set [2] was −58.53%. Moreover, the “WNT Antagonist Efficacy” value in data set [3] (WNT-3a stimulated, 24 h) is reported as −74.76%. In data set [4] (retinol stimulated), the “RAR Antagonist Efficacy” value is given as −113.16%. For the same molecule, the “SHH Antagonist Efficacy” value in data set [5] (conditioned medium, 24 h) is given as −96.63%.

`CN(C)C(=S)SSC(=S)N(C)C` [Thiram]: the IC50 in data set [1] came to 0.1 µM. Turning to `CC(C)C[C@H](NC(=O)[C@H](Cc1ccccc1)NC(=O)c1cnccn1)B(O)O` [bortezomib], the “inhibition of neurite outgrowth, in words” value in data set [1] (24 h treatment, Figure 5D) is given as “inhibited neurite outgrowth”. Still for that read-out and setting: as for `C=CC(=O)Nc1cc2c(Nc3ccc(F)c(Cl)c3)ncnc2cc1OCCCN1CCOCC1` [canertinib], the entry is “inhibited neurite outgrowth”.

`CN(C)C(=S)[S-].CN(C)C(=S)[S-].[Cu+2]` [copper dimethyl dithiocarbamates]: the IC50 in data set [2] (read-out: IC50 in SBE-bla assay, DTC cluster k35.18, Figure 3B) turned out to be 1.62 µM.

Turning to `Cc1nc(Nc2ncc(C(=O)Nc3c(C)cccc3Cl)s2)cc(N2CCN(CCO)CC2)n1` [dasatinib], the IC50 in data set [2] (setting [9]) was found to be 0.26 µM. Further, in data set [1] (24 h treatment, Figure 5D), the “inhibition of neurite outgrowth, in words” value is listed as “did not inhibit neurite outgrowth; also recorded: didn’t inhibit neurite outgrowth”. Take `S=C(SSC(=S)N1CCCCC1)N1CCCCC1` [dicyclopentamethylenethiuram, dicyclopentamethylenethiuram disulfide]: the IC50 in data set [2] (Homo sapiens, HEK-293T, read-out: IC50 in SBE-bla assay, DTC cluster k35.18) was 0.58 µM; in data set [1], 0.82 µM. Turning to `CCN(CC)C(=S)SSC(=S)N(CC)CC` [disulfiram], the IC50 in data set [1] came out at 0.18 µM.

In the case of `CN1CC[C@H](c2c(O)cc(O)c3c(=O)cc(-c4ccccc4Cl)oc23)[C@H](O)C1` [flavopiridol hydrochloride, reference compound], the IC50 in data set [2] (setting [9]) came to 0.02 µM. Moreover, the “inhibition of neurite outgrowth, in words” value in data set [1] (24 h treatment, Figure 5D) is “inhibited neurite outgrowth”. Turning to `CC(=O)[C@]1(O)Cc2c(O)c3c(c(O)c2[C@@H](O[C@H]2C[C@H](N)[C@H](O)[C@H](C)O2)C1)C(=O)c1ccccc1C3=O` [idarubicin hydrochloride], in data set [1] (24 h treatment, Figure 5D), the “inhibition of neurite outgrowth, in words” value is listed as “inhibited neurite outgrowth”.

Take `COc1cccc2c1C(=O)c1c(O)c3c(c(O)c1C2=O)C[C@@](O)(C(=O)CO)C[C@@H]3O[C@H]1C[C@H](N2CCO[C@H](OC)C2)[C@H](O)[C@H](C)O1` [nemorubicin]: the “inhibition of neurite outgrowth, in words” value in data set [1] is recorded as “inhibited neurite outgrowth”. For the molecule `[F][Sn]([c]1ccccc1)([c]1ccccc1)[c]1ccccc1` [triphenyltin fluoride], the “fold less cytotoxic in SBE-bla HEK 293T cells than in NSCs” value (shortened to “fold less cytotoxic”) in data set [7] came to 10 fold. For the molecule `CC[C@]1(O)C[C@@H]2CN(CCc3c([nH]c4ccccc34)[C@@](C(=O)OC)(c3cc4c(cc3OC)N(C)[C@H]3[C@@](O)(C(=O)OC)[C@H](OC(C)=O)[C@]5(CC)C=CCN6CC[C@]43[C@@H]65)C2)C1` [vinblastine sulfate], in data set [1] (24 h treatment, Figure 5D), the “inhibition of neurite outgrowth, in words” value was “inhibited neurite outgrowth”. Take TGFβ1: native TGFR ligand, human TGFβ1: in data set [8], the “EC50 of activation of SBE-bla activity” value turned out to be 0.11 ng/mL.

For the molecule TGFβ2: native TGFR ligand, the “EC50 of activation of SBE-bla activity” value in data set [8] turned out to be 0.11 ng/mL. The same measure, in the same setting: the result for TGFβ3: native TGFR ligand reads 0.11 ng/mL. Take dibutyltin: in data set [7], the “fold less cytotoxic” value amounted to 10 fold. As for phenylmercuric acetate, the “fold less cytotoxic” value in data set [7] was found to be 10 fold.

The values above are taken from paper PMC7341485 (Chemical research in toxicology, 2019).
